Laboratory results: patent US9375004B2 (Bayer Intellectual Property GmbH, priority 2010, dated 2016)
Where “and” joins values, the source holds several entries; their conditions need not be identical. Identical values can stand only once. Like-named read-outs stand apart in the source and are kept apart here.

Columns and labels:
Pyricularia oryzae = type: in vivo
Pyrenophora teres = assay: Pyrenophora teres-test (barley)/preventive; type: in vivo; conditions: 500 ppm, preventive, evaluated 8 days after inoculation
Botrytis cinerea = assay: Botrytis test (beans)/preventive; conditions: 100 ppm, preventive, lesion size 2 days after inoculation
Procedure: Botrytis Test (Beans)/Preventive
(§1) Solvent: 24.5 parts by weight of acetone • 24.5 parts by weight of N,N-dimethylformamide
(§2) Emulsifier: 1 part by weight of alkylaryl polyglycol ether
After the spray coating has dried on, 2 small pieces of agar covered with growth of Botrytis cinerea are placed on each leaf. The inoculated plants are placed in a darkened chamber at 20° C. and a relative atmospheric humidity of 100%.
2 days after the inoculation, the size of the lesions on the leaves is evaluated.

Septoria tritici = assay: Septoria tritici-test (wheat)/preventive; type: in vivo; conditions: 500 ppm, preventive, evaluated 21 days after inoculation
Alternaria solani = assay: Alternaria test (tomato)/preventive; type: in vivo; conditions: 500 ppm, preventive, evaluated 7 days after inoculation
[1] = logP by HPLC on reversed-phase column (EEC Directive 79/831 Annex V.A8); conditions: HPLC on reversed-phase column (C 18), EEC Directive 79/831 Annex V.A8
Puccinia triticina = assay: Puccinia triticina-test (wheat)/preventive; type: in vivo; conditions: 500 ppm, preventive, evaluated 8 days after inoculation
Phakopsora pachyrhizi = assay: Phakopsora test (soybeans)/protective; type: in vivo; conditions: 250 ppm, protective, evaluated 11 days after inoculation
Cochliobolus miyabeanus = assay: Cochliobolus test (rice)/protective; type: in vivo; conditions: 250 ppm, protective, evaluated 4 days after inoculation
[2] = tested on: Fusarium nivale (var. majus); assay: Fusarium nivale (var. majus)-test (wheat)/preventive; conditions: preventive, evaluated 5 days after inoculation
Procedure: Fusarium Nivale (Var. Majus)-Test (Wheat)/Preventive
Solvent: 49 parts by weight of N,N-dimethylacetamide
as §2
After the spray coating has been dried, the plants are slightly injured by using a sandblast and afterwards they are sprayed with a conidia suspension of Fusarium nivale (var. majus).
The plants are placed in the greenhouse under a translucent incubation cabinet at a temperature of approximately 10° C. and a relative atmospheric humidity of approximately 100%.
The test is evaluated 5 days after the inoculation.

Uromyces appendiculatus = conditions: 100 ppm, beans, preventive, evaluated 10 days after inoculation
Venturia inaequalis = assay: Venturia test (apples)/preventive; conditions: 100 ppm, preventive, evaluated 10 days after inoculation
Procedure: Venturia Test (Apples)/Preventive
as §1, §2
After the spray coating has dried on, the plants are inoculated with an aqueous conidia suspension of the causal agent of apple scab (Venturia inaequalis) and then remain for 1 day in an incubation cabinet at approximately 20° C. and a relative atmospheric humidity of 100%.
The plants are then placed in a greenhouse at approximately 21° C. and a relative atmospheric humidity of approximately 90%.
The test is evaluated 10 days after the inoculation.

Sphaerotheca fuliginea = assay: Sphaerotheca test (cucumber)/preventive; type: in vivo; conditions: 500 ppm, preventive, evaluated 7 days after inoculation
Rhizoctonia solani = assay: Rhizoctonia test (rice)/protective; type: in vivo; conditions: 250 ppm, protective, evaluated 4 days after inoculation
Procedure: Rhizoctonia Test (Rice)/Protective
Solvent: 28.5 parts by weight of acetone
Emulsifier: 1.5 part by weight of alkylaryl polyglycol ether
1 day after the treatment, the plants are inoculated with hyphae of Rhizoctonia solani.
Evaluation is carried out 4 days after the inoculation.

Row | Compound | Efficacy (Pyricularia oryzae; in vivo) | Efficacy (Pyrenophora teres) | Efficacy (Botrytis cinerea) | Efficacy (Septoria tritici) | Efficacy (Alternaria solani) | logP [1] | Efficacy (Puccinia triticina) | Efficacy (Phakopsora pachyrhizi) | Efficacy (Cochliobolus miyabeanus) | Efficacy ([2]; 500 ppm) | Efficacy (Uromyces appendiculatus) | Efficacy (Venturia inaequalis) | Efficacy (Sphaerotheca fuliginea) | Efficacy (Rhizoctonia solani) | Efficacy ([2]; 250 ppm) | Efficacy ([2]; 500 ppm, listed as 47 from this invention) | protection (Pyricularia oryzae; in vivo) | Efficacy (Pyricularia oryzae; 250 ppm, rice, protective, evaluated 5 days after inoculation) | chromatographic logP (physchem; logP (acidic), HPLC, 0.1% aqueous formic acid/acetonitrile) | chromatographic logP (physchem; logP, HPLC on reversed-phase column (C 18), EEC Directive 79/831 Annex V.A8)
1 | Cn1nc(C(F)F)c(C(=O)Nc2ccccc2CCC(C)(C)C)c1F [Example 13] | 97% | 100% | 94% | 100% | 100% | 3.83 | 100% | 98% | 85% | 100% | 100% | 100% | 100% | 100% |  |  |  |  |  | 
2 | CC(C)C1C2CCC1c1c(NC(=O)c3c(C(F)F)nn(C)c3F)cccc12 (stereo not drawn) [Example 66] | 100% | 100% | 99% | 100% | 100% | 4.41 | 100% | 98% | 93% | 86% | 100% | 100% | 100% | 100% | 93% |  |  |  |  | 
3 | Cn1nc(C(F)F)c(C(=O)Nc2ccccc2-c2ccc(C(F)(F)F)c(F)c2)c1Cl [Example 148] | 80% | 100% | 100% | 100% |  | 3.77 | 100% | 98% | 95% | 86% | 100% | 100% |  | 100% |  |  |  |  |  | 
4 | Cn1nc(C(F)F)c(C(=O)Nc2ccccc2C2CC2C2CC2)c1Cl (single isomer, unassigned) [Example 47] | 90% | 100% |  |  |  | 3.76 | 100% | 98% |  |  | 100% | 100% |  | 100% |  | 86% |  |  |  | 
5 | Cn1nc(C(F)F)c(C(=O)Nc2ccc(F)cc2-c2ccc(Cl)c(Cl)c2)c1F [Example 116] | 97% and 90% | 100% | 100% | 100% | 100% | 3.89 | 100% | 85% | 90% |  | 100% | 100% | 98% | 97% |  |  | at least 90% |  |  | 
6 | Cn1nc(C(F)F)c(C(=O)Nc2ccccc2CCC(C)(C)C)c1Cl [Example 14] |  | 100% | 99% | 93% |  |  | 100% | 98% | 90% | 100% | 100% | 100% |  | 100% |  |  |  | 98% | 4.01 | 4.1
7 | Cn1nc(C(F)F)c(C(=O)Nc2ccccc2C2CC2C2CC2)c1F (stereo not drawn) [Example 46] | 96% | 100% | 99% | 89% | 100% | 3.67 | 100% | 85% |  |  | 100% | 100% | 94% | 97% |  |  |  |  |  | 
8 | CC(CC(C)(C)C)c1ccccc1NC(=O)c1c(C(F)F)nn(C)c1F (stereo not drawn) [Example 21] | 85% | 95% | 100% | 100% | 95% | 4.04 | 100% | 98% | 85% |  | 100% | 100% | 95% | 100% |  |  |  |  |  | 
